Test results: PubChem BioAssay (NCI)
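Method: 48-hour compound exposure of cells in 96-well plates, five concentrations, linear interpolation of endpoints. The concentration for 50% growth inhibition is given as GI50. The concentration for full growth arrest is given as TGI.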

These compounds were tested on NCI-H226 lung (assay: inhibition of tumour cell growth, NCI panel, 48 h).
For `O=C(Nc1nc2ncn(CCI)c2c(=O)[nH]1)c1ccccc1`, the TGI was 77.4 µM.
`CC(O)C(N=Cc1ccccc1[O-])C(=O)[O-].CC(O)C(N=Cc1ccccc1[O-])C(=O)[O-].[Co+2]` (stereo not drawn) was tested, and the GI50 was 28.6 µM and the TGI was greater than 100 µM.

What follows are compounds tested on NCI-H23 lung (assay: inhibition of tumour cell growth, NCI panel, 48 h).
Compound `O=C(/C=C/c1ccc(O)cc1)OC[C@@H](O)COC1OC(CO)C(O)C(O)C1O` (stereo partly drawn) has a TGI greater than 100 µM.
For `CCN(CC)CCOc1ccc(/C=C(\C#N)c2ccc(OCCN(CC)CC)cc2)cc1`, the TGI was 42.6 µM.
With `Cc1ccc(NC(=O)c2c(C)nc(=O)n3c2N(/N=C/c2ccc(Cl)cc2)CC3)cc1` the TGI was 29.2 µM.
In the case of `CC1=Nc2ccccc2C1C(Cc1ccccc1N)c1c(C)[nH]c2ccccc12` (stereo not drawn), the TGI is reported as 33.6 µM.
For `CCOP(=O)(Cc1ccc(CP(=O)(OCC)OCC)n1C)OCC`, the TGI was greater than 100 µM.
In the case of `O=C(Nc1nc2ncn(CCI)c2c(=O)[nH]1)c1ccccc1`, the TGI is reported as greater than 100 µM.
Work on `CC(O)C(N=Cc1ccccc1[O-])C(=O)[O-].CC(O)C(N=Cc1ccccc1[O-])C(=O)[O-].[Co+2]` (stereo not drawn) yielded a GI50 greater than 100 µM and a TGI greater than 100 µM.

Each compound was assayed on NCI-H460 lung (assay: inhibition of tumour cell growth, NCI panel, 48 h).
In the case of `O=C(/C=C/c1ccc(O)cc1)OC[C@@H](O)COC1OC(CO)C(O)C(O)C1O` (stereo partly drawn), the TGI is reported as greater than 100 µM.
In the case of `CCN(CC)CCOc1ccc(/C=C(\C#N)c2ccc(OCCN(CC)CC)cc2)cc1`, the TGI is reported as 36.6 µM.
In the case of `CC1=Nc2ccccc2C1C(Cc1ccccc1N)c1c(C)[nH]c2ccccc12` (stereo not drawn), the TGI is reported as 35.2 µM.
In the case of `CCOP(=O)(Cc1ccc(CP(=O)(OCC)OCC)n1C)OCC`, the TGI is reported as greater than 100 µM.
In the case of `O=C(Nc1nc2ncn(CCI)c2c(=O)[nH]1)c1ccccc1`, the TGI is reported as greater than 100 µM.

These compounds were tested on NCI-H522 lung (assay: inhibition of tumour cell growth, NCI panel, 48 h).
For `O=C(/C=C/c1ccc(O)cc1)OC[C@@H](O)COC1OC(CO)C(O)C(O)C1O` (stereo partly drawn), the TGI was greater than 100 µM.
Work on `CCN(CC)CCOc1ccc(/C=C(\C#N)c2ccc(OCCN(CC)CC)cc2)cc1` yielded a TGI of 24.9 µM.
In the case of `Cc1ccc(NC(=O)c2c(C)nc(=O)n3c2N(/N=C/c2ccc(Cl)cc2)CC3)cc1`, the TGI is reported as 24 µM.
`CC1=Nc2ccccc2C1C(Cc1ccccc1N)c1c(C)[nH]c2ccccc12` (stereo not drawn) was tested, and the TGI was 31.6 µM.
With `CCOP(=O)(Cc1ccc(CP(=O)(OCC)OCC)n1C)OCC` the TGI was greater than 100 µM.
In the case of `O=C(Nc1nc2ncn(CCI)c2c(=O)[nH]1)c1ccccc1`, the TGI is reported as greater than 100 µM.
Work on `CC(O)C(N=Cc1ccccc1[O-])C(=O)[O-].CC(O)C(N=Cc1ccccc1[O-])C(=O)[O-].[Co+2]` (stereo not drawn) yielded a GI50 greater than 100 µM and a TGI greater than 100 µM.

What follows are compounds tested on OVCAR-3 ovarian (assay: inhibition of tumour cell growth, NCI panel, 48 h).
In the case of `CCN(CC)CCOc1ccc(/C=C(\C#N)c2ccc(OCCN(CC)CC)cc2)cc1`, the TGI is reported as greater than 63.1 µM.
`CC1=Nc2ccccc2C1C(Cc1ccccc1N)c1c(C)[nH]c2ccccc12` (stereo not drawn) was tested, and the TGI was 31.4 µM.
`CCOP(=O)(Cc1ccc(CP(=O)(OCC)OCC)n1C)OCC` showed a TGI greater than 100 µM.
`O=C(Nc1nc2ncn(CCI)c2c(=O)[nH]1)c1ccccc1` gave a TGI greater than 100 µM.
`CC(O)C(N=Cc1ccccc1[O-])C(=O)[O-].CC(O)C(N=Cc1ccccc1[O-])C(=O)[O-].[Co+2]` (stereo not drawn) gave a GI50 greater than 100 µM and a TGI greater than 100 µM.

What follows are compounds tested on OVCAR-4 ovarian (assay: inhibition of tumour cell growth, NCI panel, 48 h).
`CCN(CC)CCOc1ccc(/C=C(\C#N)c2ccc(OCCN(CC)CC)cc2)cc1` showed a TGI greater than 75.4 µM.
`Cc1ccc(NC(=O)c2c(C)nc(=O)n3c2N(/N=C/c2ccc(Cl)cc2)CC3)cc1` was tested, and the TGI was 32 µM.
`CCOP(=O)(Cc1ccc(CP(=O)(OCC)OCC)n1C)OCC` showed a TGI greater than 100 µM.
Work on `O=C(Nc1nc2ncn(CCI)c2c(=O)[nH]1)c1ccccc1` yielded a TGI greater than 100 µM.

The compounds below were run on OVCAR-5 ovarian (assay: inhibition of tumour cell growth, NCI panel, 48 h).
Work on `O=C(/C=C/c1ccc(O)cc1)OC[C@@H](O)COC1OC(CO)C(O)C(O)C1O` (stereo partly drawn) yielded a TGI greater than 100 µM.
Work on `CCN(CC)CCOc1ccc(/C=C(\C#N)c2ccc(OCCN(CC)CC)cc2)cc1` yielded a TGI greater than 66 µM.
In the case of `CC1=Nc2ccccc2C1C(Cc1ccccc1N)c1c(C)[nH]c2ccccc12` (stereo not drawn), the TGI is reported as 31.6 µM.
Compound `CCOP(=O)(Cc1ccc(CP(=O)(OCC)OCC)n1C)OCC` has a TGI greater than 100 µM.
With `O=C(Nc1nc2ncn(CCI)c2c(=O)[nH]1)c1ccccc1` the TGI was greater than 100 µM.
Work on `CC(O)C(N=Cc1ccccc1[O-])C(=O)[O-].CC(O)C(N=Cc1ccccc1[O-])C(=O)[O-].[Co+2]` (stereo not drawn) yielded a GI50 greater than 100 µM and a TGI greater than 100 µM.

The compounds below were run on OVCAR-8 ovarian (assay: inhibition of tumour cell growth, NCI panel, 48 h).
With `O=C(/C=C/c1ccc(O)cc1)OC[C@@H](O)COC1OC(CO)C(O)C(O)C1O` (stereo partly drawn) the TGI was greater than 100 µM.
`CCN(CC)CCOc1ccc(/C=C(\C#N)c2ccc(OCCN(CC)CC)cc2)cc1` gave a TGI of 42.6 µM.
Work on `CC1=Nc2ccccc2C1C(Cc1ccccc1N)c1c(C)[nH]c2ccccc12` (stereo not drawn) yielded a TGI of 32.6 µM.
For `CCOP(=O)(Cc1ccc(CP(=O)(OCC)OCC)n1C)OCC`, the TGI was greater than 100 µM.
`O=C(Nc1nc2ncn(CCI)c2c(=O)[nH]1)c1ccccc1` showed a TGI greater than 62.2 µM.
Work on `CC(O)C(N=Cc1ccccc1[O-])C(=O)[O-].CC(O)C(N=Cc1ccccc1[O-])C(=O)[O-].[Co+2]` (stereo not drawn) yielded a GI50 greater than 100 µM and a TGI greater than 100 µM.

Each compound was assayed on RPMI-8226 leukemia (assay: inhibition of tumour cell growth, NCI panel, 48 h).
With `CCN(CC)CCOc1ccc(/C=C(\C#N)c2ccc(OCCN(CC)CC)cc2)cc1` the TGI was 50.1 µM.
Work on `CC1=Nc2ccccc2C1C(Cc1ccccc1N)c1c(C)[nH]c2ccccc12` (stereo not drawn) yielded a TGI of 52.4 µM.
`CCOP(=O)(Cc1ccc(CP(=O)(OCC)OCC)n1C)OCC` gave a TGI greater than 100 µM.
In the case of `O=C(Nc1nc2ncn(CCI)c2c(=O)[nH]1)c1ccccc1`, the TGI is reported as greater than 100 µM.
In the case of `CC(O)C(N=Cc1ccccc1[O-])C(=O)[O-].CC(O)C(N=Cc1ccccc1[O-])C(=O)[O-].[Co+2]` (stereo not drawn), the GI50 is reported as 94.4 µM and the TGI is reported as greater than 100 µM.

These compounds were tested on RXF 393 renal (assay: inhibition of tumour cell growth, NCI panel, 48 h).
`O=C(/C=C/c1ccc(O)cc1)OC[C@@H](O)COC1OC(CO)C(O)C(O)C1O` (stereo partly drawn) was tested, and the TGI was greater than 100 µM.
`CCN(CC)CCOc1ccc(/C=C(\C#N)c2ccc(OCCN(CC)CC)cc2)cc1` gave a TGI of 27.9 µM.
With `CC1=Nc2ccccc2C1C(Cc1ccccc1N)c1c(C)[nH]c2ccccc12` (stereo not drawn) the TGI was 35.1 µM.
For `CCOP(=O)(Cc1ccc(CP(=O)(OCC)OCC)n1C)OCC`, the TGI was greater than 100 µM.
Work on `O=C(Nc1nc2ncn(CCI)c2c(=O)[nH]1)c1ccccc1` yielded a TGI of 59.3 µM.
With `CC(O)C(N=Cc1ccccc1[O-])C(=O)[O-].CC(O)C(N=Cc1ccccc1[O-])C(=O)[O-].[Co+2]` (stereo not drawn) the GI50 was greater than 100 µM and the TGI was greater than 100 µM.

What follows are compounds tested on RXF-631 renal (assay: inhibition of tumour cell growth, NCI panel, 48 h).
Work on `O=C(/C=C/c1ccc(O)cc1)OC[C@@H](O)COC1OC(CO)C(O)C(O)C1O` (stereo partly drawn) yielded a TGI greater than 100 µM.
With `Cc1ccc(NC(=O)c2c(C)nc(=O)n3c2N(/N=C/c2ccc(Cl)cc2)CC3)cc1` the TGI was 30.6 µM.
In the case of `CC1=Nc2ccccc2C1C(Cc1ccccc1N)c1c(C)[nH]c2ccccc12` (stereo not drawn), the TGI is reported as 44.4 µM.
With `CCOP(=O)(Cc1ccc(CP(=O)(OCC)OCC)n1C)OCC` the TGI was greater than 100 µM.
For `O=C(Nc1nc2ncn(CCI)c2c(=O)[nH]1)c1ccccc1`, the TGI was greater than 100 µM.
`CC(O)C(N=Cc1ccccc1[O-])C(=O)[O-].CC(O)C(N=Cc1ccccc1[O-])C(=O)[O-].[Co+2]` (stereo not drawn) was tested, and the GI50 was greater than 100 µM and the TGI was greater than 100 µM.

What follows are compounds tested on SF-268 CNS (assay: inhibition of tumour cell growth, NCI panel, 48 h).
In the case of `CCN(CC)CCOc1ccc(/C=C(\C#N)c2ccc(OCCN(CC)CC)cc2)cc1`, the TGI is reported as 53.9 µM.
Compound `Cc1ccc(NC(=O)c2c(C)nc(=O)n3c2N(/N=C/c2ccc(Cl)cc2)CC3)cc1` has a TGI of 29.2 µM.
With `CC1=Nc2ccccc2C1C(Cc1ccccc1N)c1c(C)[nH]c2ccccc12` (stereo not drawn) the TGI was 21.5 µM.
`CCOP(=O)(Cc1ccc(CP(=O)(OCC)OCC)n1C)OCC` gave a TGI greater than 100 µM.
For `O=C(Nc1nc2ncn(CCI)c2c(=O)[nH]1)c1ccccc1`, the TGI was 50.3 µM.
Work on `CC(O)C(N=Cc1ccccc1[O-])C(=O)[O-].CC(O)C(N=Cc1ccccc1[O-])C(=O)[O-].[Co+2]` (stereo not drawn) yielded a GI50 of 29.9 µM and a TGI greater than 100 µM.

The compounds below were run on SF-295 CNS (assay: inhibition of tumour cell growth, NCI panel, 48 h).
`O=C(/C=C/c1ccc(O)cc1)OC[C@@H](O)COC1OC(CO)C(O)C(O)C1O` (stereo partly drawn) showed a TGI greater than 100 µM.
`CCN(CC)CCOc1ccc(/C=C(\C#N)c2ccc(OCCN(CC)CC)cc2)cc1` gave a TGI of 28 µM.
Work on `CC1=Nc2ccccc2C1C(Cc1ccccc1N)c1c(C)[nH]c2ccccc12` (stereo not drawn) yielded a TGI of 25.8 µM.
For `CCOP(=O)(Cc1ccc(CP(=O)(OCC)OCC)n1C)OCC`, the TGI was greater than 100 µM.
Compound `O=C(Nc1nc2ncn(CCI)c2c(=O)[nH]1)c1ccccc1` has a TGI greater than 87.4 µM.
With `CC(O)C(N=Cc1ccccc1[O-])C(=O)[O-].CC(O)C(N=Cc1ccccc1[O-])C(=O)[O-].[Co+2]` (stereo not drawn) the GI50 was greater than 100 µM and the TGI was greater than 100 µM.

Each compound was assayed on SF-539 CNS (assay: inhibition of tumour cell growth, NCI panel, 48 h).
`CCN(CC)CCOc1ccc(/C=C(\C#N)c2ccc(OCCN(CC)CC)cc2)cc1` showed a TGI of 20.6 µM.
With `Cc1ccc(NC(=O)c2c(C)nc(=O)n3c2N(/N=C/c2ccc(Cl)cc2)CC3)cc1` the TGI was 25 µM.
`CC1=Nc2ccccc2C1C(Cc1ccccc1N)c1c(C)[nH]c2ccccc12` (stereo not drawn) was tested, and the TGI was 31.5 µM.
`CCOP(=O)(Cc1ccc(CP(=O)(OCC)OCC)n1C)OCC` showed a TGI greater than 100 µM.
Work on `O=C(Nc1nc2ncn(CCI)c2c(=O)[nH]1)c1ccccc1` yielded a TGI greater than 64.6 µM.
`CC(O)C(N=Cc1ccccc1[O-])C(=O)[O-].CC(O)C(N=Cc1ccccc1[O-])C(=O)[O-].[Co+2]` (stereo not drawn) was tested, and the GI50 was greater than 100 µM and the TGI was greater than 100 µM.

What follows are compounds tested on SK-MEL-2 melanoma (assay: inhibition of tumour cell growth, NCI panel, 48 h).
With `CCN(CC)CCOc1ccc(/C=C(\C#N)c2ccc(OCCN(CC)CC)cc2)cc1` the TGI was 39.9 µM.
`Cc1ccc(NC(=O)c2c(C)nc(=O)n3c2N(/N=C/c2ccc(Cl)cc2)CC3)cc1` gave a TGI of 34.7 µM.
Work on `CC1=Nc2ccccc2C1C(Cc1ccccc1N)c1c(C)[nH]c2ccccc12` (stereo not drawn) yielded a TGI of 23 µM.
In the case of `CCOP(=O)(Cc1ccc(CP(=O)(OCC)OCC)n1C)OCC`, the TGI is reported as greater than 100 µM.
With `O=C(Nc1nc2ncn(CCI)c2c(=O)[nH]1)c1ccccc1` the TGI was greater than 92.3 µM.
In the case of `CC(O)C(N=Cc1ccccc1[O-])C(=O)[O-].CC(O)C(N=Cc1ccccc1[O-])C(=O)[O-].[Co+2]` (stereo not drawn), the GI50 is reported as greater than 100 µM and the TGI is reported as greater than 100 µM.

These compounds were tested on SK-MEL-28 melanoma (assay: inhibition of tumour cell growth, NCI panel, 48 h).
`O=C(/C=C/c1ccc(O)cc1)OC[C@@H](O)COC1OC(CO)C(O)C(O)C1O` (stereo partly drawn) was tested, and the TGI was greater than 100 µM.
In the case of `CCN(CC)CCOc1ccc(/C=C(\C#N)c2ccc(OCCN(CC)CC)cc2)cc1`, the TGI is reported as 32 µM.
